System: trephine defect
Assay: Bony ingrowth / regeneration in the trephine defect after systemic treatment of mice
Type: in vivo
Conditions: systemic administration
Procedure: Mice and Injury Model: All experiments are performed in accordance with the IACUC guidelines. C57BL/6J wild-type mice aged 8-12 weeks are purchased from Jackson Laboratories (Bar Harbor, Me.). Mice are randomized to receive one of #1) no injury; #2) an implant stud having a porous polyethylene-polypropylene coating placed in a defect in the distal femur. […] Treatment Groups: Mice in each of the 4 experimental groups are randomly assigned to receive once daily one of: #1) saline i.p. injection; #2) AMD3100 (10 mg/kg, i.p.; PLERIXAFOR®; Genzyme Corp., Cambridge, Mass.) injection; #3) Teriparatide (0.285 mcg/kg, i.p.; FORTEO®; Eli Lilly and Company, Indianapolis, Ind.); or #4) AMD3100 (10 mg/kg, i.p.; PLERIXAFOR®; Genzyme Corp., Cambridge, Mass.); and teriparatide (0.285 mcg/kg, i.p.; FORTEO®; Eli Lilly and Company, Indianapolis, Ind.). […] BM is flushed from mouse long bones using PBS/10% FBS/5% EDTA, as previously described. Mononuclear cells (MNCs) from the peripheral blood and BM are isolated by density gradient centrifugation using Histopaque 1083 (Sigma-Aldrich; St. Louis, Mo.). […] Adobe Photoshop CS3 is used to segment and quantify positive CD31 staining. The vascular density of mouse wounds is determined by quantifying the total area of CD31+ staining (red) per megapixel (1×106 pixels square area) of wound stained.

| SMILES | bony ingrowth / bony regeneration [%] |
| --- | --- |
| CC[C@H](C)[C@H](NC(=O)[C@H](CCC(=O)O)NC(=O)[C@H](CO)NC(=O)[C@@H](NC(=O)[C@@H](N)CO)C(C)C)C(=O)N[C@@H](CCC(N)=O)C(=O)N[C@@H](CC(C)C)C(=O)N[C@@H](CCSC)C(=O)N[C@@H](Cc1cnc[nH]1)C(=O)N[C@@H](CC(N)=O)C(=O)N[C@@H](CC(C)C)C(=O)NCC(=O)N[C@@H](CCCCN)C(=O)N[C@@H](Cc1cnc[nH]1)C(=O)N[C@@H](CC(C)C)C(=O)N[C@@H](CC(N)=O)C(=O)N[C@@H](CO)C(=O)N[C@@H](CCSC)C(=O)N[C@@H](CCC(=O)O)C(=O)N[C@@H](CCCN=C(N)N)C(=O)N[C@H](C(=O)N[C@@H](CCC(=O)O)C(=O)N[C@@H](Cc1c[nH]c2ccccc12)C(=O)N[C@@H](CC(C)C)C(=O)N[C@@H](CCCN=C(N)N)C(=O)N[C@@H](CCCCN)C(=O)N[C@@H](CCCCN)C(=O)N[C@@H](CC(C)C)C(=O)N[C@@H](CCC(N)=O)C(=O)N[C@@H](CC(=O)O)C(=O)N[C@H](C(=O)N[C@@H](Cc1cnc[nH]1)C(=O)N[C@@H](CC(N)=O)C(=O)N[C@@H](Cc1ccccc1)C(=O)O)C(C)C)C(C)C [PTH] | 56 |
| c1cc(CN2CCCNCCNCCCNCC2)ccc1CN1CCCNCCNCCCNCC1 [AMD3100] | 59.7 |

— patent US20160030522A1, “COMBINATION THERAPY TO IMPROVE SOFT TISSUE HEALING, FAT GRAFT HEALING, ENDOCHONDRAL BONE HEALING AND OSTEOINTEGRATION” (priority 2013, published 2016)
